Literature values as cited in EP0086705A1, “Aqueous solution of ursodeoxycholic acid for therapeutic uses, process for its preparation and its utilization for the treatment of cholelithiasis” (S.A. PANMEDICA Société dite:, priority 1982, dated 1983).

Conditions: 37"C

## C[C@H](CCC(=O)O)[C@H]1CC[C@H]2[C@@H]3[C@H](O)C[C@@H]4C[C@H](O)CC[C@]4(C)[C@H]3CC[C@]12C [acide chénodésoxycholique]
  pH de précipitation de la solution: 7,0
